Measurements taken from patent US8829014B2, “Thiazole and thiophene analogues, and their use in treating autoimmune diseases and cancers” (Board of Supervisors of Louisiana State University and …, priority 2006, dated 2014).

test system: carageenan-induced edema; assay: Carrageenan-induced rat paw edema test (anti-inflammatory activity); format: in vivo, Sprague-Dawley rats; set-up: % Protection: concentration or dose not given beside the values; settings: Rattus norvegicus, po, 3 h, carrageenan-induced rat paw edema; defined in Example 397; read-out: % Protection
Procedure: Sprague-Dawley rats, male and female, 150-250 g will be used in an edema test. Rats will be deprived of food but not water for 18 hours prior to the experiment. The test compounds will be administered with a blunt-tipped needle orally, 50 mg/kg, as a suspension in 0.1% sodium CMC (carboxymethylcellulose) vehicle. Alternatively, the test compounds will be injected intravenously, subcutaneously, or intraperitoneally. One hour later, 0.1 ml of a 1% carrageenan solution in saline will be injected in the sub-plantar region of the right hind paw of each rat. […] The reading will be repeated 3 hours later. The displacement readings give a measure of carageenan-induced edema. Any reduction in carageenan-induced edema with a test compound, as compared to saline control, is a measure of the anti-inflammatory activity of the test compound. The percentage protection at 50-mg/kg doses was calculated according to the following formula: % Protection=[(Control−Test)/Control]×100%.
Following treatment, the media from the VSMC and HUVEC incubations were removed, and the amount of lactate dehydrogenase (LDH) released into the medium was determined with a commercial kit and expressed as a % increase over vehicle-treated cells. HPT toxicity was determined by the ethidium homodimer (EthHD) uptake assay. […] The lead compounds were also tested in two pairs of cell lines from the skin or prostate, one tumorigenic and one non-tumorigenic, to test for differing toxicity or heightened sensitivity in the tumorigenic lines. The cells were treated for 48 h with vehicle (0.1% DMSO) or 10 μM of each drug candidate, and the viability of the cells was determined by the MTT assay, expressed as a % decrease in viability compared to vehicle-treated cells. The in vivo inflammation model measured the % inhibition of rat paw edema induced by carageenan injection.

Question: Which inhibition in vivo at 50 mg/kg does the source give for `CCOC(=O)Nc1nc(C)c(-c2nc3ccccc3c(=O)n2-c2ccc(C)cc2)s1` [Example 190, (4-Methyl-5-(4-oxo-3-p-tolyl-3,4-dihydro-quinazolin-2-yl)-thiazol-2-yl)-carbamic acid ethyl ester] here?
Answer: 24%

Question: For `COc1ccccc1-n1c(-c2sc(Nc3ccc(Cl)cc3)nc2C)nc2ccccc2c1=O` [Example 203, 2-[2-(4-Chlorophenylamino)-4-methyl-thiazol-5-yl]-3-(2-methoxyphenyl)-3H-quinazoline-4-one], which inhibition in vivo at 50 mg/kg is on record?
Answer: 27%

same assay, conditions: Rattus norvegicus, po, 3 h, rat paw edema, 50 mg/kg, reading 3 hours after carrageenan; [(Control−Test)/Control]×100%; read-out: % Protection P

Question: Which inhibition in vivo at 50 mg/kg does the source give for `COc1ccc(C(=O)c2cc(-c3ccncc3)c(N3CCOCC3)s2)cc1` [Example 104, (4-Methoxy-phenyl)-(5-morpholin-4-yl-4-pyridin-4-yl-thiophen-2-yl)-methanone] here?
Answer: 43.5%

Question: How did the inhibition in vivo at 50 mg/kg turn out when `O=C(c1ccccc1)c1cc(-c2ccc(Cl)cc2)c(N2CCOCC2)s1` [Example 78, [4-(4-Chloro-phenyl)-5-morpholin-4-yl-thiophen-2-yl]-phenyl-methanone] was run?
Answer: -48.3%

Question: For `COc1ccc(C(=O)c2sc(N3CCN(C(=O)c4ccco4)CC3)nc2-c2ccccc2)cc1` [Example 382, {2-[4-(Furan-2-carbonyl)-piperazin-1-yl]-4-phenyl-thiazol-5-yl}-(4-methoxy-phenyl)-methanone], which inhibition in vivo at 50 mg/kg is on record?
Answer: 46%

Question: How did the inhibition in vivo at 50 mg/kg turn out when `O=C(c1cc(-c2cccnc2)c(N2CCOCC2)s1)c1ccc(Cl)cc1Cl` [Example 94, (2,4-Dichloro-phenyl)-(5-morpholin-4-yl-4-pyridin-3-yl-thiophen-2-yl)-methanone] was run?
Answer: -51.4%

Question: With `O=c1c2ccccc2nc(-c2cc(-c3ccc(Cl)cc3)c(N3CCOCC3)s2)n1-c1ccccc1Cl` [Example 305, 2-[4-(4-Chlorophenyl)-5-morpholin-4-yl-thiophene-2-yl]-3-(2-chlorophenyl)-3H-quinazolin-4-one] as the compound, how does the inhibition in vivo at 50 mg/kg read?
Answer: 40%

Question: With `Cc1ccc(-n2c(-c3cc(-c4ccccc4)c(N4CCOCC4)s3)nc3ccccc3c2=O)cc1` [Example 290, 2-(5-Morpholin-4-yl-4-phenyl-thiophene-2-yl)-3-p-tolyl-3H-quinazolin-4-one] as the compound, how does the inhibition in vivo at 50 mg/kg read?
Answer: 48%

Question: With `COc1ccc(Nc2nc(NC(=O)Nc3ccc(F)cc3)c(C(=O)c3ccncc3)s2)cc1` [Example 365, 1-(4-Fluoro-phenyl)-3-[2-(4-methoxy-phenylamino)-5-(pyridine-4-carbonyl)-thiazol-4-yl]-urea] as the compound, how does the inhibition in vivo at 50 mg/kg read?
Answer: 69.6%

Question: For `COc1ccc(C(=O)c2cc(-c3ccc(NC(C)=O)cc3)c(N3CCOCC3)s2)cc1` [Example 68, N-{4-[5-(4-Methoxy-benzoyl)-2-morpholin-4-yl-thiophene-3-yl]-phenyl}-acetamide], which inhibition in vivo at 50 mg/kg is on record?
Answer: 40%

Question: How did the inhibition in vivo at 50 mg/kg turn out when `Cc1ccccc1-n1c(-c2cc(-c3ccc(Cl)cc3)c(N3CCOCC3)s2)nc2ccccc2c1=O` [Example 279, 2-[4-(4-Chloro-phenyl)-5-morpholin-4-yl-thiophen-2-yl]-3-o-tolyl-3H-quinazolin-4-one] was run?
Answer: 0%

Question: Which inhibition in vivo at 50 mg/kg does the source give for `CS(=O)(=O)c1ccc(-c2cc(C(=O)c3ccccc3)sc2N2CCOCC2)cc1` [Example 54, [4-(4-Methanesulfonyl-phenyl)-5-morpholin-4-yl-thiophene-2-yl]-phenyl-methanone] here?
Answer: 17.8%

Question: With `COc1c(C)cnc(-c2sc(Nc3ccccc3)nc2N)c1C` [Example 330, 5-(4-Methoxy-3,5-dimethyl-pyridin-2-yl)-N2-phenyl-thiazole-2,4-diamine] as the compound, how does the inhibition in vivo at 50 mg/kg read?
Answer: 24%

Question: `CSc1ccc(C(=O)c2cc(-c3ccc(S(C)(=O)=O)cc3)c(N3CCOCC3)s2)cc1` [Example 59, [4-(4-Methanesulfonyl-phenyl)-5-morpholin-4-yl-thiophene-2-yl]-(4-methylsulfanyl-phenyl)-methanone] was tested. Which inhibition in vivo at 50 mg/kg did it give?
Answer: 45.8%

Question: `O=C(c1ccccc1)c1cc(-c2ccccc2)c(N2CCOCC2)s1` [Example 42, (5-Morpholin-4-yl-4-phenyl-thiophen-2-yl)-phenyl-methanone] was tested. Which inhibition in vivo at 50 mg/kg did it give?
Answer: 53.5%

Question: With `COc1ccc(C(=O)c2cc(-c3cccnc3)c(N3CCOCC3)s2)cc1` [Example 92, (4-Methoxy-phenyl)-(5-morpholin-4-yl-4-pyridin-3-yl-thiophen-2-yl)methanone] as the compound, how does the inhibition in vivo at 50 mg/kg read?
Answer: 69%

Question: How did the inhibition in vivo at 50 mg/kg turn out when `CC(=O)Nc1ccc(-c2cc(C(=O)c3ccc(S(C)(=O)=O)cc3)sc2N2CCOCC2)cc1` [Example 72, N-{4-[5-(4-Methansulfonyl-benzoyl)-2-morpholin-4-yl-thiophene-3-yl]-phenyl}-acetamide] was run?
Answer: 50%

Question: `O=C(c1cccnc1)c1cc(-c2cccnc2)c(N2CCOCC2)s1` [Example 98, (5-Morpholin-4-yl-4-pyridin-3-yl-thiophen-2-yl)-pyridin-3-yl-methanone] was tested. Which inhibition in vivo at 50 mg/kg did it give?
Answer: 42%

Question: How did the inhibition in vivo at 50 mg/kg turn out when `CC(=O)Nc1ccc(C(=O)c2cc(-c3cccnc3)c(N3CCOCC3)s2)cc1` [Example 97, N-[4-(5-Morpholin-4-yl-4-pyridin-3-yl-thiophen-2-carbonyl)-phenyl]-acetamide] was run?
Answer: 46.8%

Question: For `O=C(c1sc(Nc2ccc(Cl)cc2)nc1-c1ccccc1)c1sc(Nc2ccc(Cl)cc2)nc1-c1ccccc1` [Example 127, Bis-[2-(4-Chloro-phenylamino)-4-phenyl-thiazole-5-yl]-methanone], which inhibition in vivo at 50 mg/kg is on record?
Answer: 43.5%

Question: `O=C(c1cccnc1)c1cc(-c2ccccc2)c(N2CCOCC2)s1` [Example 50, (5-Morpholin-4-yl-4-phenyl-thiophene-2-yl)-pyridine-3-yl-methanone] was tested. Which inhibition in vivo at 50 mg/kg did it give?
Answer: 6.9%

Question: Which inhibition in vivo at 50 mg/kg does the source give for `COc1ccccc1Nc1nc(-c2ccccc2)c(C(=O)c2sc(Nc3ccccc3OC)nc2-c2ccccc2)s1` [Example 391, Bis-[2-(2-methoxy-phenylamino)-4-phenyl-thiazol-5-yl]-methanone] here?
Answer: 59%

Question: Which inhibition in vivo at 50 mg/kg does the source give for `O=C(Nc1ccc(F)cc1)Nc1nc(Nc2ccc(Cl)cc2)sc1C(=O)c1cccnc1` [Example 359, 1-[2-(4-Chloro-phenylamino)-5-(pyridine-3-carbonyl)-thiazol-4-yl]-3-(4-fluoro-phenyl)-urea] here?
Answer: 64.2%

Question: `O=C(c1ccncc1)c1sc(N2CCN(C(=O)c3ccco3)CC2)nc1-c1ccccc1` [Example 387, {2-[4-(Furan-2-carbonyl)-piperazin-1-yl]-4-phenyl-thiazol-5-yl}-pyridin-4-yl-methanone] was tested. Which inhibition in vivo at 50 mg/kg did it give?
Answer: 32%

Question: With `CS(=O)(=O)c1ccc(C(=O)c2cc(-c3ccc(S(C)(=O)=O)cc3)c(N3CCOCC3)s2)cc1` [Example 60, (4-Methanesulfonyl-phenyl)-[4-(4-methansulfonyl-phenyl)5-morpholin-4-yl-thiophene-2-yl]-methanone] as the compound, how does the inhibition in vivo at 50 mg/kg read?
Answer: 59.9%

Question: For `CCN(CC)C(/C=N/C(=S)NC(=O)c1ccccc1)c1ccccc1` (centres unmarked) [Example 38, 1-Benzoyl-3-[1-diethylamino-1-phenyl-eth-(E)-ylidene]-thiourea], which inhibition in vivo at 50 mg/kg is on record?
Answer: 10.9%

Question: How did the inhibition in vivo at 50 mg/kg turn out when `O=C(c1ccc(Cl)cc1)c1cc(-c2ccc(Cl)cc2)c(N2CCOCC2)s1` [Example 81, (4-Chloro-phenyl)-[4-(4-chloro-phenyl)-5-morpholin-4-yl-thiophen-2-yl]-methanone] was run?
Answer: 20%

Question: With `O=C(c1ccncc1)c1cc(-c2ccc(Cl)cc2)c(N2CCOCC2)s1` [Example 87, [4-(4-Chloro-phenyl)-5-morpholin-4-yl-thiophen-2-yl]-pyridin-4-yl-methanone] as the compound, how does the inhibition in vivo at 50 mg/kg read?
Answer: 35%

Question: How did the inhibition in vivo at 50 mg/kg turn out when `O=C(Nc1ccc(F)cc1)Nc1nc(Nc2ccc(Cl)cc2)sc1C(=O)c1ccc(Cl)cc1Cl` [Example 358, 1-[2-(4-Chloro-phenylamino)-5-(2,4-dichloro-benzoyl)-thiazol-4-yl]-3-(4-fluoro-phenyl)-urea] was run?
Answer: 72.5%

same assay, conditions: carrageenan-induced rat paw edema; defined in Example 397

Question: With `O=c1c2ccccc2nc(-c2sc(Nc3ccc(Cl)cc3)nc2-c2ccccc2)n1-c1ccccc1Cl` [Example 238, 2-[2-(4-Chlorophenylamino)-4-phenyl-thiazol-5-yl]-3-(2-Chloro-phenyl)1-3H-quinazolin-4-one] as the compound, how does the “% Protection” value read?
Answer: 61%

same assay, conditions: rat paw edema, 50 mg/kg, reading 3 hours after carrageenan; [(Control−Test)/Control]×100%

Question: How did the “% Protection P” value turn out when “4-{5-[5-Methyl5-(2,2,2-trifluoro-ethoxy)-pyridin-2-yl]-3-pyridin-4-yl-thiphen-2-yl}-morpholine [Example 101]” was run?
Answer: 47%

Question: For “4-{3-(4-Chloro-phenyl)-5-[5-methyl-4-(2,2,2-trifluoro-ethoxy)-pyridin-2-yl]-thiophen-2-yl}-morpholine [Example 77]”, which “% Protection P” value is on record?
Answer: 23%

Question: How did the “% Protection P” value turn out when `CSc1ccc(C(=O)c2cc(-c3ccc(Cl)cc3)c(N3CCOCC3)s2)cc1` [Example 83, [4-(4-Chloro-phenyl)-5-morpholin-4-yl-thiophen-2-yl]-(4-methansulfanyl-phenyl)-methanone] was run?
Answer: 27%

Question: How did the “% Protection P” value turn out when `COc1ccc(Nc2nc(NC(=O)Nc3ccc(F)cc3)c(C(=O)c3ccc(S(C)(=O)=O)cc3)s2)cc1` [Example 364, 1-(4-Fluoro-phenyl)-3-[5-(4-methanesulfonyl-benzoyl)-2-(4-methoxy-phenylamino)-thiazol-4-yl]-urea] was run?
Answer: 66.78%

Question: With “4-[3-Phenyl-5-(4,5,6-trimethoxy-pyridine-2-yl)-thiophen-2-yl]-morpholine [Example 39]” as the compound, how does the “% Protection P” value read?
Answer: 19.65%
